{
  "source": "patent US6037333A",
  "about": "“Microbe-inhibiting compositions” (Trustees of Tufts College, priority 1998, dated 2000)",
  "key": {"Acanthamoeba": {"tested_on": "Acanthamoeba", "assay": "Acanthamoeba-induced CPE assay, primary cultures of corneal epithelium", "format": "cell-based", "conditions": "primary cultures as target cells", "procedure": "In vitro cytopathic assays were performed using cell cultures of corneal epithelium as target cells. Primary cell cultures of rabbit corneal epithelium were prepared according to published protocols (M. M. Jumblatt, Invest. Opthalmol. Visual Sci. 24:1139-43, 1983) using rabbit eyes from Pel-Freez Biologicals (N. Panjwani et al., Invest. Opthalmol. Visual Sci. 31:689-695, 1990) (Rogers, AK). Generally, seventy-five eyes were processed at a time. Primary cultures have limited life span and can only be passaged 2 to 3 times without significant alteration in cell morphology.\nTo characterize the role of carbohydrate-mediated host-parasite interactions in the Acanthamoeba-induced cytotoxicity of host cells, in vitro cytopathic assays were performed using both primary and immortalized cultures of corneal epithelium as host cells. Immortalized cells were assayed as confluent cultures in 24-well plates, and primary cells were assayed as confluent cells in 35-mm dishes or 6-well plates.\nThe parasites (>95% trophozoites) were rinsed three times in a serum-free Eagle's minimum essential medium supplemented with 0.4% bovine serum albumin (SFB) and aliquots of the parasite suspension (0.2×10^5 to 1×10^6 parasites/ml SFB medium, 300 μl/well for 24-well plates and 500 μl/well for 6-well plates or 35-mm dishes) were added to wells of confluent epithelial cultures which had been rinsed and preincubated in SFB medium for 2 hours. The plates were incubated at 37° C. in a CO2 incubator and periodically examined under a phase-contrast microscope for the presence of cell-free plaques in the monolayer for up to 28-30 hours. Control wells contained host cells without the parasites. At the end of the incubation period, the cultures were stained with Giemsa (Diff-Quik, Dade Diagnostic Inc., Aguada, PR). Approximate cell density in each well was estimated by scanning the stained plates in a calibrated, computer-assisted Bio-Image Scanner (Millipore, Ann Arbor, Mich.). Cytopathic effect (CPE) was expressed as percentage of the optical density by the following formula: [formula]\nPrimary cultures were less susceptible to amoeba-induced CPE, requiring 1×10^6 parasites/ml to completely destroy the monolayer within 24 hours. This parasite concentration was five times higher than that required to produce the same effect when immortalized cultures were used as target host cells."}, "[1]": {"target": "mannose binding protein (MBP) of Acanthamoeba (Acanthamoeba castellanii, UniProt Q6J288)", "sequence (Q6J288 entry or part of it)": "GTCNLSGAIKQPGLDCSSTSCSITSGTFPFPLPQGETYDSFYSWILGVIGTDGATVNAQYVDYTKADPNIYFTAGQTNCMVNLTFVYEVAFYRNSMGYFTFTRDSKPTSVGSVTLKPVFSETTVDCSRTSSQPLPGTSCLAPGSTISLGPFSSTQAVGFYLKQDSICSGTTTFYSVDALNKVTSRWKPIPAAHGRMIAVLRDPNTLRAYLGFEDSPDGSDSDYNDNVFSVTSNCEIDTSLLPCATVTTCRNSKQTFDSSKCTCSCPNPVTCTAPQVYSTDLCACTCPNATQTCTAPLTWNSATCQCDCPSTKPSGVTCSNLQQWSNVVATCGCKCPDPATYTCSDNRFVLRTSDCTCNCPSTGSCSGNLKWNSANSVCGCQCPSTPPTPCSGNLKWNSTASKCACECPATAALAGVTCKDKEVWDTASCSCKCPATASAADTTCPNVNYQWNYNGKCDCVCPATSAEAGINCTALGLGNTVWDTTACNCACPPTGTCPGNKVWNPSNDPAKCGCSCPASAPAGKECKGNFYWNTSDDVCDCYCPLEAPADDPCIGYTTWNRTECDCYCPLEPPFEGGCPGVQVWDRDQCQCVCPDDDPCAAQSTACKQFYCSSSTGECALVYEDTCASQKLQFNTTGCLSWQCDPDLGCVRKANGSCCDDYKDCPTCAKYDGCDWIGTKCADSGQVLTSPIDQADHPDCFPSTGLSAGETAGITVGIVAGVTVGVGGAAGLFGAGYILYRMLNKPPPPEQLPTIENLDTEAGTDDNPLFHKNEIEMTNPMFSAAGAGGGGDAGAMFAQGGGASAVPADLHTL", "assay": "Solid-phase assay of 35S-labeled Acanthamoeba binding to Man-BSA coated wells", "design": "species or system Acanthamoeba strain MEEI 0184 (A. castellani)", "conditions": "for Inhibition of amoebic binding to Man-BSA / affinity of amoebic lectin: no concentration stated", "description": "The Acanthamoeba strain MEEI 0184 (A. castellani based on morphological characteristics) was derived from an infected human cornea and used throughout this study. ATCC strain 30868 should have similar properties. The parasites were axenically cultured in PYG medium. A solid-phase assay characterized the sugar binding properties of the mannose binding protein (MBP) of Acanthamoeba (Z. Yang et al., Infect. Immun. 65:439-445, 1997). Briefly, wells of microtiter plates were coated with bovine serum albumin-α-D-mannopyranosyl phenylisothiocyanate (Man-BSA, 15-25 moles of α-D-mannopyranoside/mole albumin, 0.03 μg/ml, 50μl/well in 0.1 M sodium carbonate buffer, pH 9.6, 4° C. overnight). Nonspecific binding was blocked with 1% BSA in phosphate buffered saline (PBS, 1 hour, room temperature). After adding a 50-μl aliquot of ^35 S-labeled Acanthamoeba (5×10^6 cells/ml in PBS; 1 to 2 cpm/parasite, >95% trophozoites) to each well, the plates were incubated for 2 hours at room temperature. After rinsing the cells with PBS to remove unbound Acanthamoeba, 0.1 ml of 2% sodium dodecyl sulfate (SDS) was added to each well, and the radioactivity in aliquots of solubilized material was determined in a scintillation counter."}, "[2]": {"tested_on": "Acanthamoeba-conditioned medium (ACM)", "assay": "CPE assay with Acanthamoeba-conditioned medium (ACM)", "format": "cell-based", "procedure": "To determine whether the mechanism modulating the CPE produced by intact amoeba and amoeba-conditioned medium (ACM) are distinct, CPE and assays were also performed using ACM in the presence and the absence of saccharides. To produce ACM, exponentially growing parasites (>95% trophozoites) in PYG media (Proteose Peptone-yeast extract-glucose , J. T. Bornes et al., J. Parasitol. 56:904-906, 1970) were rinsed twice with SFB medium and incubated in serum-free SFB medium at concentrations between 2×10^5 to 1×10^6 cells/ml in a CO2 incubator for 24 hours. After removing the parasites by centrifugation, each supernatant was analyzed for its ability to induce CPE. Saccharides (α-Man and GIcNAc, 50 mM) were added either to the ACM after it was produced or to serum-free medium used to produce an ACM. The ACM produced in the presence of the saccharides was also analyzed after removal of the saccharides by centrifugation through Centricon 3 microconcentrators (Amicon Inc., Beverly, Mass.).\nTo determine the role of the parasitic secretory factors in the cytopathogenic mechanism, chromium release and CPE assays were performed using ACM. In this study, parasites were incubated in the SFB media for 24 hours, centrifuged to remove parasites and the conditioned medium was tested for its ability to produce cytolysis and CPE. The ACM produced remarkable CPE. […] Approximately 6 to 8 hours following the incubation of the monolayer with the ACM, the cell sheet at the edges of the monolayer began to lift and roll inwards and eventually the entire monolayer lifted en bloc from the dish. These observations were similar to those seen when the monolayers were incubated with trophozoites in the presence of α-Man. Unlike the CPE induced by intact amoeba, the CPE induced by the ACM was not inhibited by either α-Man or GlcNAc when the sugars were added to the ACM after it was produced. In the next set of experiments, ACM was produced in the presence of α-Man or GIcNAc and was tested for CPE-inducing activity. […] In addition, the filtrate and retentate obtained after filtering the ACM in Centricon 3 microconcentrators were tested for CPE-inducing activity. When the ACM was produced in the absence of either sugar, substantially all of the CPE-inducing activity was found in the retentate obtained after Centricon filtration."}},
  "note": "Entries after “also recorded” stand apart in the source; their conditions may differ.",
  "data": [
    {"smiles": "CO[C@H]1O[C@H](CO)[C@@H](O)[C@H](O)[C@@H]1O", "note": "[Methyl-α-D-mannopyranoside]", "values": [
      {"measurement": "Inhibition of amoeba-induced CPE", "setting": "Acanthamoeba", "result": "inhibited CPE"},
      {"measurement": "Relative inhibitory potency in binding to Man-BSA", "setting": "[1]; comparator named in the value, listed as α-Man", "result": "ten times that of D-mannose; also recorded: eight times that of β-Man"},
      {"measurement": "Inhibition of amoebic binding to Man-BSA / affinity of amoebic lectin", "setting": "[1]; listed as Methyl-α-mannopyranoside", "result": "potent inhibitors"},
      {"measurement": "Inhibition of amoebic binding to Man-BSA / affinity of amoebic lectin", "setting": "[1]; listed as α-Man", "result": "highest affinity"},
      {"measurement": "CPE-inducing activity of ACM produced in SFB containing the saccharide", "setting": "[2]; saccharide 50 mM in medium used to produce ACM", "result": "strongly induced CPE"},
      {"measurement": "Inhibition of ACM-induced CPE", "setting": "[2]; sugar (50 mM) added to the ACM after it was produced", "result": "not inhibited"}
    ]}
  ]
}
